From PubChem BioAssay (NCI) come the findings set out here.

Holding throughout (experiment): NCI tumour cell line growth inhibition, 48 h
Assay [1] relates to UO-31 renal.
Assay [2] has as its system RXF 393 renal.
For assay [3], the system named is RPMI-8226 leukemia.
Assay [4] has as its system OVCAR-4 ovarian.
For assay [5], the system named is OVCAR-8 ovarian.
Assay [6] deals with K-562 leukemia.
The test system of assay [7] is ACHN renal.
The test system of assay [8] is SF-295 CNS.
Assay [9] relates to LOX IMVI melanoma.
Assay [10] has as its system 786-0 renal.

Several values for one entry are separate records, joined by “and”; a condition that tells them apart may be missing. Equal entries are not always repeated.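 A five-concentration, 48-hour dose response in 96-well plates underlies each endpoint, interpolated linearly between surrounding concentrations. TGI: total growth inhibition.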 Where only a bound is given, the exact number is not on record here.

`N#C/C=C\c1ccc(-c2cc(C(F)(F)F)cc(C(F)(F)F)c2)o1`: the TGI in [1] was above 100 µM; in assay [2], above 100 µM; in [3] it was above 100 µM; in assay [4], above 100 µM; in assay [5], 58.5 µM; in assay [6], above 100 µM. Also, the TGI is above 100 µM in assay [7], 46 µM in assay [8], above 100 µM in assay [9] and 70.5 µM in assay [10].
Consider `CCCCCCCCC(=O)NCCN(CCN)C(=O)CCCCCCCC`, for which the TGI in assay [1] came to 26.6 µM; in [2], 34.1 µM; in assay [3] it was 6.25 µM; in assay [4] it was 16.2 µM; in [5] it was 26.8 µM; in assay [6], 8.27 µM. The TGI in assay [7] worked out at 19.2 µM; in assay [8], 10.5 µM; in assay [9] it was 9.06 µM; in assay [10] it was 12.4 µM.
For `C1COCCOP2(N3CC3)=NP(N3CC3)(=NP(N3CC3)(N3CC3)=N2)OCCOCCO1` (stereo not given), the TGI in assay [1], in [2], in assay [3], in assay [4], in assay [5] and in assay [6] was above 100 µM throughout. Moreover, the TGI in assay [7], in assay [8], in assay [9] and in [10] was above 100 µM throughout.
`CCCNC(=O)c1cc(NC(=O)c2cc(NC(=O)CCS(=O)(=O)OC)cn2C)cn1C`: the TGI was above 100 µM in assay [1]; 29 µM in assay [2]; above 100 µM in assay [3]; above 73.6 µM in [4]; 30.3 µM in assay [5]; above 100 µM in [6]. The TGI was above 100 µM in [7], above 100 µM in assay [8], 43.6 µM in assay [9] and above 71.7 µM in assay [10].
Turning to `OCC(O)C(O)C(C=NNc1ncnc2ccc(Br)cc12)=NNc1ncnc2ccc(Br)cc12` (stereo not given), the TGI in assay [1] was 25.6 µM and > 100 µM; in assay [2], 72.4 µM; in assay [3], above 100 µM; in assay [4], 23.7 µM and > 100 µM; in assay [5], 46.9 µM and > 100 µM; in assay [6], above 100 µM. Also, the TGI is 14.2 µM and > 100 µM in assay [7]; above 100 µM in assay [8]; 14.9 µM and > 100 µM in assay [9]; above 100 µM in assay [10].
For the compound `C=[N+](CNC(=O)CNC(=O)C(Cc1ccccc1)NC(=O)OC(C)(C)C)C(=O)CNC(=O)C(Cc1ccccc1)NC(=O)OC(C)(C)C` (stereo not given), the TGI in assay [1], in assay [2], in assay [3], in assay [4], in assay [5] and in [6] was above 100 µM in each case. In addition, the TGI in assay [7], in [8], in [9] and in [10] was above 100 µM in each case.
Turning to `CC(=O)CC(=O)ON(C)C(=O)Cc1ccccc1`, the TGI in assay [1], in [2], in assay [3], in assay [4], in [5] and in [6] was above 100 µM in each case. Moreover, the TGI in assay [7], in [8], in [9] and in [10] was above 100 µM each time.
With `CSc1nc(Cl)c2c(n1)Sc1nc3ccccc3n1N=C2`, the TGI in assay [1] is 35.9 µM; in [2], 43.4 µM; in assay [3] it was 60 µM; in assay [4], above 100 µM; in assay [5], 36.4 µM; in assay [6], 50 µM. Also, the TGI in [7] is 58 µM; in [8], above 100 µM; in [9], 33.5 µM; in assay [10], 70.2 µM.
As for `Cc1ccccc1NC(=O)CC(=O)n1nc(-c2ccccc2)c(N=Nc2ccc([N+](=O)[O-])cc2)c1-c1ccccc1`, the TGI in assay [1] is 34.8 µM; in [2] it was 82 µM; in assay [3], 69.4 µM; in assay [4] it was above 100 µM; in [5] it was above 100 µM; in assay [6] it was 48.9 µM. The TGI is 44.5 µM in assay [7], 49.6 µM in assay [8], 46.6 µM in assay [9] and 67.1 µM in [10].
Take `CC1OC(n2cnc3c(N)nc(Cl)nc32)C(C)(O)C1O` (stereo not given): the TGI in [1], in assay [2], in assay [3], in assay [4], in [5] and in assay [6] was above 25 µM throughout. Besides, the TGI in assay [7], in assay [8], in [9] and in [10] was above 25 µM throughout.
On to `CCOC(=O)c1c[nH]c2cc3c(cc2c1=O)CCS3`, for which the TGI in assay [1], in assay [2], in assay [3], in assay [4], in assay [5] and in assay [6] was above 100 µM each time. Further, the TGI in assay [7], in assay [8], in assay [9] and in assay [10] was above 100 µM in each case.
Take `CC(C)(C)c1cc2c(O)c(c1)COCc1cc(C(C)(C)C)cc(c1O)COCc1cc(C(C)(C)C)cc(c1O)COC2`: the TGI in assay [1], in assay [2], in [3], in assay [4], in assay [5] and in [6] was above 100 µM in each case. Also, the TGI in assay [7], in [8], in assay [9] and in assay [10] was above 100 µM each time.
